Measurements taken from patent US8841413B2, “Antidiabetic compounds” (Cadila Healthcare Limited, priority 2006, dated 2014).

Key:
Human GLP-1 receptor = target: T1, Human GLP-1 receptor (Homo sapiens, UniProt P43220); assay type: cell-based; conditions: in vitro, FIG. 4
T1 construct: The full-length cDNA was cloned in pcDNA3.1(+); expressed in transfected cells
Description: The novel peptidomimetics were screened for Human GLP-1 receptor (HGLP-1 R) agonist activity (in vitro), using the cAMP cell-based assay, in stably transfected CHO/human GLP1R cells. […] CHO cells were grown in Ham's F12 medium containing L-Glutamine (2 mM), HEPES (25 mM), NaHCO3 (1.1 g/L) and supplemented with NewBorn Calf Serum (NBCS; 10%), Penicillin (50 U/ml (v/v)) and Streptomycin (50 ug/ml (v/v)). Cells were split every 3 days 1:8.
The cDNA encoding the human GLP-1 receptor was isolated by RT-PCR according to standard protocol. The full-length cDNA was cloned in pcDNA3.1(+). […] Clones expressing the receptor were generated by G418 (800 μg/ml active, Sigma) selection. The stable clones were thereafter maintained at 500 ug/ml (G418). The selected clone was used between passages 9-25 for cAMP assays.
The trypsin was inactivated using Ham's F12 medium containing 10% NBCS and the cells were suspended in 2 ml of complete medium. […] The medium was aspirated off from the 12 well plate and the cells were washed once using Ham's F12 (plain). […] The cells were incubated with the test compounds for 30 min in humidified atmosphere and 37° C. After the incubation, the medium was removed and cells were washed once with plain Ham's F12. Subsequently, the cells were lysed by adding 500 ul of ice cold 0.1 N HCl to each well and shaking for 30 minutes at 200 rpm. […] The total cAMP was estimated from the sample according to the manufacturer's protocol using Cyclic AMP immunoassay kit (R&D systems, Minneapolis. MN). The remaining supernatant is used to determine the protein concentration using micro BCA (Sigma). Data is calculated as percent of control (Vehicle: water) and expressed as Mean±SD.

C57BL/6J mice = assay: Acute single dose 120-min time-course experiment, in vivo glucose reduction in C57BL/6J mice; parameters: unit not given here; conditions: male C57BL/6J mice, Mean ± SEM
Description: All the animal experiments were carried out according to the internationally valid guidelines following approval by the ‘Zydus Research Center animal ethical committee’. […] Two days prior to the study, the animals were randomised and divided into 5 groups (n=6), based upon their fed glucose levels. On the day of experiment, food was withdrawn from all the cages, water was given ad-libitum and were kept for overnight fasting. Vehicle (normal saline)/test/standard compounds were administered intraperitoneally (i.p.) or orally, on a body weight basis. […] Blood samples were centrifuged and the separated serum was immediately subjected for the glucose estimation. Serum for insulin estimation was stored at −70° C. until used for the insulin estimation. The glucose estimation was carried out with DPEC-GOD/POD method (Ranbaxy Fine Chemicals Limited, Diagnostic division, India), using Spectramax-190, in 96-microwell plate reader (Molecular devices Corporation, Sunnyvale, Calif.). […] The AUC and BCAUC obtained from graphs were analyzed for one way ANOVA, followed by Dunnett's post test, using Graph Pad prism software. Furthermore, the insulin estimation was carried out using rat/mouse insulin ELISA kit (Linco research, Mo. USA).

T1 sequence (P43220 24-463): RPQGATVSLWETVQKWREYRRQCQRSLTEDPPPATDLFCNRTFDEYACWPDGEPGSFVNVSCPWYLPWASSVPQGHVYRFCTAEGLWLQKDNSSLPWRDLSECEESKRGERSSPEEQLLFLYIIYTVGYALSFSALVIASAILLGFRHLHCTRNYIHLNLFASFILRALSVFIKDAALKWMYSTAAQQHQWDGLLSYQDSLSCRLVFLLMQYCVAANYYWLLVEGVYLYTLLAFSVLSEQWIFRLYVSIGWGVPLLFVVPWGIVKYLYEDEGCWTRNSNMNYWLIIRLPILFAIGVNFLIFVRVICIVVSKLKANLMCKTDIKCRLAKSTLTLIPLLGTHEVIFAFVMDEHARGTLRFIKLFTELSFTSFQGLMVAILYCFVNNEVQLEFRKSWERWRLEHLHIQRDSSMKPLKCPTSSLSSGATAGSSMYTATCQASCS

Structure (SMILES)	blood glucose level (C57BL/6J mice; 10 nM/kg, i.p, 0 min)	blood glucose level (C57BL/6J mice; 10 nM/kg, i.p, 30 min)	blood glucose level (C57BL/6J mice; 10 nM/kg, i.p, 60 min)	blood glucose level (C57BL/6J mice; 10 nM/kg, i.p, 120 min)	blood glucose level (C57BL/6J mice; 2 μM/kg, oral, 0 min)	blood glucose level (C57BL/6J mice; 2 μM/kg, oral, 30 min)	blood glucose level (C57BL/6J mice; 2 μM/kg, oral, 60 min)	blood glucose level (C57BL/6J mice; 2 μM/kg, oral, 120 min)	further results
CCc1cc(OC)ccc1-c1ccc(CC(NC(=O)[C@H](CC(=O)O)NC(=O)[C@H](CO)NC(=O)[C@@H](NC(=O)[C@H](Cc2ccccc2)NC(=O)[C@@H](NC(=O)CNC(=O)[C@H](CCC(N)=O)NC(=O)[C@H](CO)NC(=O)[C@@H](N)Cc2c[nH]cn2)[C@@H](C)O)[C@@H](C)O)C(=O)NC(Cc2ccc(-c3ccccc3C)cc2)C(N)=O)cc1 (single isomer, unassigned) [Seq. ID. No. 5]									GLP-1 receptor agonistic activity (in words) (Human GLP-1 receptor): GLP-1 receptor agonistic activity
CCc1cc(OC)ccc1-c1ccc(CC(NC(=O)[C@H](CC(=O)O)NC(=O)[C@H](CO)NC(=O)[C@@H](NC(=O)[C@H](Cc2ccccc2)NC(=O)[C@@H](NC(=O)CNC(=O)[C@H](CCC(N)=O)NC(=O)[C@H](C)NC(=O)[C@@H](N)Cc2c[nH]cn2)[C@@H](C)O)[C@@H](C)O)C(=O)NC(Cc2ccc(-c3ccccc3C(F)(F)F)cc2)C(N)=O)cc1 (single isomer, unassigned) [Seq. ID. No. 12]									blood glucose level (C57BL/6J mice; 50 nM/kg, i.p, 0 min): 184 ± 5.0; blood glucose level (C57BL/6J mice; 50 nM/kg, i.p, 30 min): 122 ± 3.8; blood glucose level (C57BL/6J mice; 50 nM/kg, i.p, 60 min): 128 ± 2.1; blood glucose level (C57BL/6J mice; 50 nM/kg, i.p, 120 min): 149 ± 2.3
CCc1cc(OC)ccc1-c1ccc(CC(NC(=O)[C@H](CC(=O)O)NC(=O)[C@H](CO)NC(=O)[C@@H](NC(=O)[C@H](Cc2ccccc2)NC(=O)[C@@H](NC(=O)CNC(=O)[C@H](CCC(N)=O)NC(=O)C(C)(C)NC(=O)[C@@H](N)Cc2c[nH]cn2)[C@@H](C)O)[C@@H](C)O)C(=O)NC(Cc2ccc(-c3ccccc3C(F)(F)F)cc2)C(N)=O)cc1 (single isomer, unassigned) [Seq. ID. No. 16, H-Aib-QGTFTSD-Bip(OMe)-Bip(2CF3)]									blood glucose level (C57BL/6J mice; 30 nM/kg, i.p, 0 min): 183 ± 4.9; blood glucose level (C57BL/6J mice; 30 nM/kg, i.p, 30 min): 117 ± 2.5; blood glucose level (C57BL/6J mice; 30 nM/kg, i.p, 60 min): 116 ± 2.3; blood glucose level (C57BL/6J mice; 30 nM/kg, i.p, 120 min): 119 ± 2.0
CCc1cc(OC)ccc1-c1ccc(CC(NC(=O)[C@H](CC(=O)O)NC(=O)[C@H](CO)NC(=O)[C@@H](NC(=O)[C@H](Cc2ccccc2)NC(=O)[C@@H](NC(=O)CNC(=O)[C@H](CCC(N)=O)NC(=O)C2(NC(=O)[C@@H](N)Cc3c[nH]cn3)CC2)[C@@H](C)O)[C@@H](C)O)C(=O)NC(Cc2ccc(-c3ccccc3F)cc2)C(N)=O)cc1 (single isomer, unassigned) [Seq. ID. No. 19, H-(ACP)-QGTFTSD-Bip(OMe)-Bip(2F)]									blood glucose level (C57BL/6J mice; 30 nM/kg, i.p, 0 min): 180 ± 3.2; blood glucose level (C57BL/6J mice; 30 nM/kg, i.p, 30 min): 119 ± 3.2; blood glucose level (C57BL/6J mice; 30 nM/kg, i.p, 60 min): 117 ± 3.1; blood glucose level (C57BL/6J mice; 30 nM/kg, i.p, 120 min): 118 ± 1.8
CCc1cc(OC)ccc1-c1ccc(CC(NC(=O)[C@H](CC(=O)O)NC(=O)[C@H](CO)NC(=O)[C@@H](NC(=O)C(C)(Cc2ccccc2F)NC(=O)[C@@H](NC(=O)CNC(=O)[C@H](CCC(N)=O)NC(=O)[C@H](CO)NC(=O)[C@@H](N)Cc2c[nH]cn2)[C@@H](C)O)[C@@H](C)O)C(=O)NC(Cc2ccc(-c3ccccc3F)cc2)C(N)=O)cc1 (single isomer, unassigned) [Seq. ID. No. 23, HSQGT-(α-Me-2F-Phe)-TSD-Bip(OMe)-Bip(2F)]									blood glucose level (C57BL/6J mice; 20 nM/kg, i.p, 0 min): 180 ± 3.1; blood glucose level (C57BL/6J mice; 20 nM/kg, i.p, 30 min): 122 ± 3.9; blood glucose level (C57BL/6J mice; 20 nM/kg, i.p, 60 min): 129 ± 2.2; blood glucose level (C57BL/6J mice; 20 nM/kg, i.p, 120 min): 140 ± 2.9
CCc1cc(OC)ccc1-c1ccc(CC(NC(=O)[C@H](CC(=O)O)NC(=O)[C@H](CO)NC(=O)[C@@H](NC(=O)C(C)(Cc2ccccc2F)NC(=O)[C@@H](NC(=O)CNC(=O)[C@H](CCC(N)=O)NC(=O)[C@H](C)NC(=O)[C@@H](N)Cc2c[nH]cn2)[C@@H](C)O)[C@@H](C)O)C(=O)NC(Cc2ccc(-c3ccccc3C(F)(F)F)cc2)C(N)=O)cc1 (single isomer, unassigned) [Seq. ID. No. 28, HAQGT-(α-Me-2F-Phe)-TSD-Bip(OMe)-Bip(2CF3)]									blood glucose level (C57BL/6J mice; 20 nM/kg, i.p, 0 min): 182 ± 2.1; blood glucose level (C57BL/6J mice; 20 nM/kg, i.p, 30 min): 121 ± 2.9; blood glucose level (C57BL/6J mice; 20 nM/kg, i.p, 60 min): 130 ± 3.1; blood glucose level (C57BL/6J mice; 20 nM/kg, i.p, 120 min): 138 ± 2.4
CCc1cc(OC)ccc1-c1ccc(CC(NC(=O)[C@H](CC(=O)O)NC(=O)[C@H](CO)NC(=O)[C@@H](NC(=O)C(C)(Cc2ccccc2F)NC(=O)[C@@H](NC(=O)CNC(=O)[C@H](CCC(N)=O)NC(=O)C(C)(C)NC(=O)[C@@H](N)Cc2c[nH]cn2)[C@@H](C)O)[C@@H](C)O)C(=O)NC(Cc2ccc(-c3ccccc3C)cc2)C(N)=O)cc1 (single isomer, unassigned) [Seq. ID. No. 29, H-Aib-QGT-(α-Me-2F-Phe)-TSD-Bip(OMe)-Bip(2Me)]	180 ± 2.5	110 ± 2.6	111 ± 3.2	112 ± 2.3	184 ± 2.5	115 ± 3.6	113 ± 4.2	110 ± 2.4	
CCc1cc(OC)ccc1-c1ccc(CC(NC(=O)[C@H](CC(=O)O)NC(=O)[C@H](CO)NC(=O)[C@@H](NC(=O)C(C)(Cc2ccccc2F)NC(=O)[C@@H](NC(=O)CNC(=O)[C@H](CCC(N)=O)NC(=O)C(C)(C)NC(=O)[C@@H](N)Cc2c[nH]cn2)[C@@H](C)O)[C@@H](C)O)C(=O)NC(Cc2ccc(-c3ccccc3C)nc2)C(N)=O)cc1 (single isomer, unassigned) [Seq. ID. No. 30, H-Aib-QGT-(α-Me-2F-Phe)-TSD-Bip(OMe)-Bip(Pyr)]	182 ± 2.1	111 ± 2.1	112 ± 2.8	113 ± 2.2	183 ± 2.4	116 ± 3.1	112 ± 4.8	110 ± 2.5	
CCc1cc(OC)ccc1-c1ccc(CC(NC(=O)[C@H](CC(=O)O)NC(=O)[C@H](CO)NC(=O)[C@@H](NC(=O)C(C)(Cc2ccccc2F)NC(=O)[C@@H](NC(=O)CNC(=O)[C@H](CCC(N)=O)NC(=O)C(C)(C)NC(=O)[C@@H](N)Cc2c[nH]cn2)[C@@H](C)O)[C@@H](C)O)C(=O)NC(Cc2ccc(-c3ccccc3F)cc2)C(N)=O)cc1 (single isomer, unassigned) [Seq. ID. No. 31, H-Aib-QGT-(α-Me-2F-Phe)-TSD-Bip(OMe)-Bip(2F)]	183 ± 2.2	113 ± 2.8	113 ± 2.9	114 ± 2.0	185 ± 2.3	115 ± 3.8	113 ± 4.9	109 ± 2.2	
CCc1cc(OC)ccc1-c1ccc(CC(NC(=O)[C@H](CC(=O)O)NC(=O)[C@H](CO)NC(=O)[C@@H](NC(=O)C(C)(Cc2ccccc2F)NC(=O)[C@@H](NC(=O)CNC(=O)[C@H](CCC(N)=O)NC(=O)C2(NC(=O)[C@@H](N)Cc3c[nH]cn3)CC2)[C@@H](C)O)[C@@H](C)O)C(=O)NC(Cc2ccc(-c3ccccc3C)cc2)C(N)=O)cc1 (single isomer, unassigned) [Seq. ID. No. 33, H-(ACP)-QGT-(α-Me-2F-Phe)-TSD-Bip(OMe)-Bip(2Me)]	181 ± 2.5	111 ± 3.4	113 ± 3.1	110 ± 1.8	182 ± 2.5	116 ± 3.1	113 ± 4.1	110 ± 2.8	
